Values joined by “and” are separate entries in the source; they are usually repeats but may differ in a detail not shown here. Equal entries are not always repeated.
Key:
rat lung cells = assay: Trypan Blue viability of the single cell suspension, lung; assay type: in vivo; conditions: lung, 5 days, individual animals
Protocol: The organ parts (see above) were washed in mincing buffer (50 mM EDTA in HBSS [without Ca^2+ and Mg^2+] pH 7.5: DMSO 9:1 (v/v), the latter added shortly before use, stored at 4 °C), cut into 1 to 2-mm pieces in ice-cold mincing buffer and transferred to a cell sieve with 70-µm pores. The viability of the cell suspension was evaluated by the Trypan Blue Assay (Strober [2001]).

rat liver = assay: Glutathione recycling assay (tGSH, GSSG) in liver; assay type: in vivo; conditions: for GSH (GSH recycling assay), individual animal / GSSG, individual animal / tGSH, individual animal / GSH (GSH recycling assay), group (mean ± SD) / GSSG, group (mean ± SD) / tGSH, group (mean ± SD): rat liver; for GSH (GSH recycling assay), group (mean ± SD) / GSSG, group (mean ± SD) / tGSH, group (mean ± SD): n = 6;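 for GSSG, group (mean ± SD): Nanomoles per gram liver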;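 for GSSG, individual animal: Nanomoles per gram liver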;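 for Mean GSSG concentration: Nanomoles per gram liver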
Protocol: Glutathione recycling assay was adapted from the method described by Gallagher ([1994]) and performed using the 14 000 g supernatant fraction derived from the 5-SSA-treated liver homogenate of the NVP-exposed male Wistar rats as described above under “Non-protein-bound sulfhydryl groups”. The obtained samples were diluted fivefold with the 5% 5-SSA solution.
For determination of total glutathione (tGSH, i.e. GSH + GSSG) a GSH control (640 µM in 5% 5-SSA, diluted by a factor of 4 for application in the assay) and a tGSH control (200 µM in 5% 5-SSA, containing 10% GSSG) were treated the same way as the samples. To 5 µL of sample, controls as well as GSH standards (dissolved in 5% 5-SSA solution) 190 µL tGSH master mix, consisting of phosphate/EDTA buffer (125 mM KH2PO4/7 mM EDTA, pH 7.5), 0.4 mM NADPH and 0.5 U/L glutathione reductase suspension, were added. Determinations were performed in triplicates. The reaction was started by adding 5 µL of 24 mM DTNB in methanol. The absorption at λ = 412 nm was measured every 60 s for 5 min.
For determination of GSSG a control (20 μM GSSG, 160 μM GSH) was treated the same way as the samples. 125 µL sample, control, GSSG standards and blank, respectively, were combined with 5 µL 2-vinylpyridine (Sigma Aldrich, Steinheim, Germany). 20 µL of […] triethylamine was pipetted to the upper rim of the vessel such that after mixing the pH value was between 7 and 7.5 and reaction was allowed to proceed in the thermomixer at 600 rpm for 1 h at 26 °C in order to derivatize the GSH in the sample. The determination of GSSG was then performed in analogy to the determination of tGSH described above. The absorption at λ = 412 nm was measured every 60 s for 10 min.

CYP2B = assay: PROD assay, lung microsomes; assay type: in vivo, rat; conditions: 20 ppm
Protocol: The alkoxyresorufin dealkylase (AROD) assays were based on the method by Burke et al. ([1994]).
The frozen livers and lungs of the NVP-treated male Wistar rats were thawed and washed with isotonic (0.9%) NaCl solution. The tissues were ice-cooled homogenized (1 g tissue: 3 mL 0.25 M saccharose in 1 mM disodium EDTA, pH 7.4) and centrifuged (9000 g, 15 min, 4 °C). The supernatant fraction was centrifuged (100 000 g, 60 min, 4 °C). The resulting supernatant fraction was used for the palmitoyl-CoA-oxidase assay described further down. The pellet was taken up in 150 mM aqueous KCl solution, recentrifuged (100 000 g, 60 min, 4 °C) and the pellet taken up in 1 mL/g liver or 0.5 mL/g lung resuspension buffer (1 mM GSH, 1 mM disodium EDTA, 4 mM MgCl2, 0.1 M KH2PO4, pH 7.5 and 4% glycerol). […]
For determination of the enzyme activities in triplicates, 85 µL master mix (100 mM TrisHCl pH 7.5, 2 mM 5’AMP, 5 mM G-6-P, 10 U G-6-P-DH, 10 mM Dicumarol, 10 mM MgCl2, either 2 µM EROD or 10 µM PROD or 5 µM BROD) was added to 10 µL microsomal fraction (1 mg protein/mL). […] The activity was determined by measuring the increase of the fluorescence (excitation at 550 nm, emission at 585 nm) due to resorufin formation compared with resorufin standards, which had been prepared by dissolving tenfold concentrated solutions in DMSO, which were then diluted tenfold in 100 mM TrisHCl pH 7.5.

CYP 2B/3A = assay: BROD inhibition control in Aroclor 1254-induced rat liver microsomes; assay type: biochemical; conditions: for BROD enzyme activity: 0 µM control 445.1 ± 9.1
Protocol: For determination of the enzyme activities in triplicates, 85 µL master mix (100 mM TrisHCl pH 7.5, 2 mM 5’AMP, 5 mM G-6-P, 10 U G-6-P-DH, 10 mM Dicumarol, 10 mM MgCl2, either 2 µM EROD or 10 µM PROD or 5 µM BROD) was added to 10 µL microsomal fraction (1 mg protein/mL). The reaction was started by the addition of 5 µL 2 mM NADPH (dissolved in 100 mM TrisHCl pH 7.5) followed by incubation at 37 °C for 16 min. The activity was determined by measuring the increase of the fluorescence (excitation at 550 nm, emission at 585 nm) due to resorufin formation compared with resorufin standards, which had been prepared by dissolving tenfold concentrated solutions in DMSO, which were then diluted tenfold in 100 mM TrisHCl pH 7.5.
As a method control the described AROD assay was performed with microsomal fractions derived from liver and lung of male Wistar rats which had been treated i.p. for 5 days with aroclor 1254 (500 mg/kg bw). These control assays were performed in presence of 1 μM, 10 μM or 100 μM NVP, respectively, in order to check for potential interactions of NVP with the substrate turnover in the AROD assay.

rats = system: rats; design: method as in Klimisch et al. [1997b]; conditions: ref Klimisch et al. [1997b], cited from earlier work
[1] = system: L5178Y mouse lymphoma cells; design: method as in MAK [1994]; conditions: ref MAK [1994]; cited from earlier work
BALB/3T3 cells = system: BALB/3T3 cells; design: method as in MAK [1994]; conditions: ref MAK [1994]; cited from earlier work
Klebsiella pneumoniae = conditions: ref MAK [1994]; cited from earlier work
[2] = 5 ppm NVP inhalation, animals 7-12
[3] = 10 ppm NVP inhalation, animals 13-18
[4] = 20 ppm NVP inhalation, animals 19-24

## C=CN1CCCC1=O [NVP, N-vinylpyrrolidone]
Rat lung cells; female, Comet with FPG (Table 11), 20 ppm inhalation
  Individual viability (%): 95%
Rat lung cells; female, no FPG, 20 ppm inhalation
  Individual viability (%): 96%
Rat lung cells; male, Comet with FPG (Table 10), 10 ppm inhalation
  Individual viability (%): 93%
Rat lung cells; male, no FPG, 10 ppm inhalation
  Individual viability (%): 93%
Rat liver; 5 ppm
  GSH/GSSG ratio: 42.2 ± 18.4
  Mean GSSG concentration: 116 ± 32 nmol/g liver
  Proportion of reduced glutathione GSH within total glutathione tGSH: 95.0% ± 1.4%
Rat liver; 10 ppm
  GSH/GSSG ratio: 31.2 ± 4.6
  Mean GSSG concentration: 135 ± 12 nmol/g liver
  Proportion of reduced glutathione GSH within total glutathione tGSH: 93.9% ± 0.8%
Rat liver; 20 ppm
  GSH/GSSG ratio: 30.0 ± 4.6
  Mean GSSG concentration: 136 ± 22 nmol/g liver
  Proportion of reduced glutathione GSH within total glutathione tGSH: 93.6% ± 0.9%
Rat liver; NVP-exposed male rats, 5-20 ppm
  GSH concentration (GSH recycling assay), range: 3.06–5.48 µmol/g liver
Rat liver; [2]
  GSH (GSH recycling assay), individual animal: 3.84 µmol/g liver and 5.48 µmol/g liver and 4.63 µmol/g liver and 3.93 µmol/g liver and 5.04 µmol/g liver and 4.00 µmol/g liver
  GSSG, individual animal: 133 nmol/g liver and 71 nmol/g liver and 144 nmol/g liver and 114 nmol/g liver and 149 nmol/g liver and 87 nmol/g liver
  tGSH, individual animal: 4.10 µmol/g liver and 5.63 µmol/g liver and 4.92 µmol/g liver and 4.16 µmol/g liver and 5.33 µmol/g liver and 4.17 µmol/g liver
Rat liver; 5 ppm NVP inhalation
  GSH (GSH recycling assay), group (mean ± SD): 4.49 ± 0.68 µmol/g liver
  GSSG, group (mean ± SD): 116 ± 32 nmol/g liver
  tGSH, group (mean ± SD): 4.72 ± 0.67 µmol/g liver
Rat liver; [3]
  GSH (GSH recycling assay), individual animal: 3.44 µmol/g liver and 3.95 µmol/g liver and 4.70 µmol/g liver and 4.98 µmol/g liver and 4.41 µmol/g liver and 3.65 µmol/g liver
  GSSG, individual animal: 132 nmol/g liver and 120 nmol/g liver and 151 nmol/g liver and 147 nmol/g liver and 126 nmol/g liver
  tGSH, individual animal: 3.70 µmol/g liver and 4.21 µmol/g liver and 4.94 µmol/g liver and 5.28 µmol/g liver and 4.70 µmol/g liver and 3.91 µmol/g liver
Rat liver; 10 ppm NVP inhalation
  GSH (GSH recycling assay), group (mean ± SD): 4.19 ± 0.61 µmol/g liver
  GSSG, group (mean ± SD): 135 ± 12 nmol/g liver
  tGSH, group (mean ± SD): 4.46 ± 0.62 µmol/g liver
Rat liver; [4]
  GSH (GSH recycling assay), individual animal: 4.45 µmol/g liver and 4.57 µmol/g liver and 3.06 µmol/g liver and 3.48 µmol/g liver and 4.31 µmol/g liver and 4.35 µmol/g liver
  GSSG, individual animal: 151 nmol/g liver and 130 nmol/g liver and 106 nmol/g liver and 142 nmol/g liver and 121 nmol/g liver and 167 nmol/g liver
  tGSH, individual animal: 4.75 µmol/g liver and 4.83 µmol/g liver and 3.27 µmol/g liver and 3.77 µmol/g liver and 4.55 µmol/g liver and 4.68 µmol/g liver
Rat liver; 20 ppm NVP inhalation
  GSH (GSH recycling assay), group (mean ± SD): 4.04 ± 0.62 µmol/g liver
  GSSG, group (mean ± SD): 136 ± 22 nmol/g liver
CYP2B
  PROD activity in lung microsomes vs vehicle control: not significantly different
CYP 2B/3A; 1 µM NVP
  BROD enzyme activity: 470.1 ± 29.7 pmol/min/mg protein
CYP 2B/3A; 10 µM NVP
  BROD enzyme activity: 445.1 ± 20.9 pmol/min/mg protein
CYP 2B/3A; 100 µM NVP
  BROD enzyme activity: 456.5 ± 30.9 pmol/min/mg protein
CYP 2B/3A; 1, 10 or 100 µM NVP
  Inhibition of BROD activity: does not lead to inhibition
rats; Sprague–Dawley rats, inhalation 3 months, 10 ppm
  Change of total non-protein-bound sulfhydryls: increase
rats; rats, inhalation
  Concentration at which erythrocytes, hematocrit and hemoglobin were reduced: 15 ppm
  Concentration with foci of altered hepatocytes: 5 ppm
  LOAEC, liver (increased gamma-glutamyl transpeptidase and glutathione): 5 ppm
  LOAEC, nasal mucosa (inflammation, olfactory epithelium atrophy, basal cell hyperplasia): 5 ppm
rats; subchronic studies in rats and mice
  Dose with necrosis of single centrilobular liver cells: 45 ppm
[1]
  Mammalian cell mutation tests (HGPRT and TK locus) result: negative
BALB/3T3 cells
  BALB/3T3 cell transformation test result: negative
Klebsiella pneumoniae
  Klebsiella pneumoniae fluctuation (point mutation) test result: negative
